Measured values published in paper PMC3986099, “Development of a Radioiodinated Triazolopyrimidine Probe for Nuclear Medical Imaging of Fatty Acid Binding Protein 4” (PLoS ONE, 2014).

Experiments:
C6 tumors = experiment: Biodistribution in C6 bearing mice; type: in vivo, Balb/c nu-nu mice; details: for Blood / Heart / Intestine / Kidney / Liver / Lung / Muscle / Pancreas / Spleen / Stomach / Tumor / T/B ratio / T/M ratio: C6 bearing mice, i.v.; for T/B ratio: tumor to blood; for T/M ratio: tumor to muscle
Protocol: C6 cells were suspended in PBS(-) followed by subcutaneous inoculation into the right hind legs of Balb/c nu-nu mice (5×10^6 cells/100 µL).
A saline solution (5% ethanol, v/v) of [^125I]TAP1 (0.06 MBq) was injected intravenously into the tail vein of C6 cell implantation model Balb/c nu-nu mice (males, 8 weeks old). The mice were sacrificed at various post-injection time points and organs, including tumor tissues, were removed. The weight and radioactivity of the organs were measured as mentioned above. Several model mice were sacrificed 3 hr after the injection by transcardial perfusion of saline (20 ml) under anesthesia with chloral hydrate. The weight and radioactivity of the removed organs, including tumor tissues, were measured as mentioned above.

[1] = Partition coefficient, 1-octanol/phosphate buffer pH 7.4; type: physicochemical; details: 1-octanol/phosphate buffer (PBS(-))
Protocol: Experimental determination of the [^125I]TAP1 partition coefficient was performed with 1-octanol and phosphate buffer at pH 7.4. The two phases were pre-saturated, and a mixture solution of 3.0 ml 1-octanol and 3.0 ml PBS (-) was added to a tube containing 0.02 ml [^125I]TAP1 in PBS (-) (0.024 MBq, 5% ethanol, v/v). The test tube was vortexed and centrifuged (1,000×g, 5 min). Aliquots from the 1-octanol and buffer phases (0.5 ml) were counted with a well-type γ-counter. This procedure was repeated three times. The partition coefficient was calculated from the ratio of radioactivity in the organic and aqueous layers.

his-tagged FABP3 = biological target: T1, his-tagged FABP3 (Homo sapiens, UniProt P05413); experiment: Selectivity binding assay with FABP immobilized on Ni-NTA magnetic agarose beads; details: immobilized FABP3, 2 hr, room temperature
T1 construct: purchased Cayman Chemical Company
Protocol: (§1) For the selectivity binding assay, his-tagged FABP3 (0.75 mg/ml), FABP4 (0.75 mg/ml) and FABP5 (0.70 mg/ml) in 50 mM phosphate buffer containing 100 mM NaCl (20% glycerol, v/v, pH = 7.2) were used. Immobilization was performed following the manufacturer's procedures. Each solution of his-tagged FABP3 ([…], 1.5 µg), FABP4 (0.002 ml, 1.5 µg) or FABP5 (0.002 ml, 1.4 µg) was incubated with 0.02 ml Ni-NTA Magnetic Agarose Beads (Qiagen) and 0.5 ml protein binding buffer (50 mM NaH2PO4, 300 mM NaCl, 10 mM imidazole, pH = 8.0) at room temperature for 1 hr. After supernatant removal, protein binding buffer with 1% BSA was added, and the mixture was incubated at room temperature for 30 min. After removal of the supernatant, 0.4 ml of interaction buffer (50 mM NaH2PO4, 300 mM NaCl, 10 mM imidazole, and 0.005% Tween, v/v, pH = 8.0) and 0.05 ml [^125I]TAP1 (0.01 MBq) in interaction buffer (5% ethanol, v/v) were added. For measurement of non-specific binding, 0.05 ml of nonradioactive TAP1 in interaction buffer (5% ethanol, v/v, 11.3 µM) was added with the [^125I]TAP1. After incubation at room temperature for 2 hr, the supernatants were removed, and the beads washed with interaction buffer (5% ethanol, v/v). The radioactivity of beads in the tubes was measured with a well-type γ-counter (1480 Wizard3, PerkinElmer Japan Co., Osaka, Japan). Binding ratios were calculated as (radioactivity of beads)/(total applied radioactivity)/(protein abundance on beads)×100 (%Dose/µg protein).

his-tagged FABP4 = biological target: T2, his-tagged FABP4 (Homo sapiens, UniProt P15090); experiment: as above
T2 construct: purchased Cayman Chemical Company
Protocol: as §1

his-tagged FABP5 = biological target: T3, his-tagged FABP5 (Homo sapiens, UniProt Q01469); experiment: as above; details: immobilized FABP5, 2 hr, room temperature
T3 construct: purchased Cayman Chemical Company
Protocol: as §1

T2 sequence (P15090 whole entry): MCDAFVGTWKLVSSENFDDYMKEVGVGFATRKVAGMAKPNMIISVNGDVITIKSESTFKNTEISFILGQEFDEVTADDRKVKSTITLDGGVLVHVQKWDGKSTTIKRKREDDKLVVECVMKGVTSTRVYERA
T1 sequence (P05413 whole entry): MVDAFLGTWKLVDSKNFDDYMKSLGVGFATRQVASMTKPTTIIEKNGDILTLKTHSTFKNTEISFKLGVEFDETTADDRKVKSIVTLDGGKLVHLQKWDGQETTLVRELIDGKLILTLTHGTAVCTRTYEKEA
T3 sequence (Q01469 whole entry): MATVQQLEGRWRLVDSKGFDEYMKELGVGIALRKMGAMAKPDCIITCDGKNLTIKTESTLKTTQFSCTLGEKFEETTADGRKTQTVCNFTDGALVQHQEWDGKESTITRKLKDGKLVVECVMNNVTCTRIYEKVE

radioactivity accumulation in tumors (peak) (C6 tumors; 15 min after injection): 2.26±0.45 %ID/g
radioactivity accumulation in C6 tumors (C6 tumors; 3 hr after injection): 1.37±0.24 % dose/g
tumor accumulation, decapitation (C6 tumors; 3 hr after injection, sacrificed by decapitation): 0.85±0.18 %ID/g
tumor accumulation, transcardial perfusion (C6 tumors; 3 hr after injection, sacrificed by transcardial perfusion): 0.96±0.18 %ID/g
tumor to muscle ratio (C6 tumors; 3 hr after probe injection): 3.6
Blood (C6 tumors; 5 min): 10.40±2.34 % injected dose per gram
Heart (C6 tumors; 5 min): 3.36±0.64 % injected dose per gram
Intestine (C6 tumors; 5 min): 2.35±0.34 % injected dose per gram
Kidney (C6 tumors; 5 min): 29.66±2.24 % injected dose per gram
Liver (C6 tumors; 5 min): 46.01±5.99 % injected dose per gram
Lung (C6 tumors; 5 min): 6.76±1.12 % injected dose per gram
Muscle (C6 tumors; 5 min): 1.05±0.33 % injected dose per gram
Pancreas (C6 tumors; 5 min): 2.55±0.31 % injected dose per gram
Spleen (C6 tumors; 5 min): 2.20± 0.44 % injected dose per gram
Stomach (C6 tumors; 5 min): 0.42±0.16 % injected dose per organ
Tumor (C6 tumors; 5 min): 1.94±0.44 % injected dose per gram
Blood (C6 tumors; 15 min): 6.60±0.61 % injected dose per gram
Heart (C6 tumors; 15 min): 2.45±0.41 % injected dose per gram
Intestine (C6 tumors; 15 min): 5.08±0.95 % injected dose per gram
Kidney (C6 tumors; 15 min): 62.82±9.70 % injected dose per gram
Liver (C6 tumors; 15 min): 37.58±2.88 % injected dose per gram
Lung (C6 tumors; 15 min): 4.26±0.19 % injected dose per gram
Muscle (C6 tumors; 15 min): 0.74±0.15 % injected dose per gram
Pancreas (C6 tumors; 15 min): 1.20±0.20 % injected dose per gram
Spleen (C6 tumors; 15 min): 1.09±0.10 % injected dose per gram
Stomach (C6 tumors; 15 min): 1.02±0.38 % injected dose per organ
Tumor (C6 tumors; 15 min): 2.26±0.45 % injected dose per gram
Blood (C6 tumors; 30 min): 4.74±1.17 % injected dose per gram
Heart (C6 tumors; 30 min): 1.76±0.40 % injected dose per gram
Intestine (C6 tumors; 30 min): 7.97±1.32 % injected dose per gram
Kidney (C6 tumors; 30 min): 77.74±8.14 % injected dose per gram
Liver (C6 tumors; 30 min): 42.20±1.51 % injected dose per gram
Lung (C6 tumors; 30 min): 3.16±1.07 % injected dose per gram
Muscle (C6 tumors; 30 min): 0.57±0.12 % injected dose per gram
Pancreas (C6 tumors; 30 min): 0.88±0.13 % injected dose per gram
Spleen (C6 tumors; 30 min): 0.84±0.14 % injected dose per gram
Stomach (C6 tumors; 30 min): 0.60±0.13 % injected dose per organ
Tumor (C6 tumors; 30 min): 1.63±0.38 % injected dose per gram
Blood (C6 tumors; 60 min): 3.25±0.66 % injected dose per gram
Heart (C6 tumors; 60 min): 1.12±0.17 % injected dose per gram
Intestine (C6 tumors; 60 min): 11.59±0.20 % injected dose per gram
Kidney (C6 tumors; 60 min): 71.54±8.25 % injected dose per gram
Liver (C6 tumors; 60 min): 30.46±3.28 % injected dose per gram
Lung (C6 tumors; 60 min): 2.19±0.52 % injected dose per gram
Muscle (C6 tumors; 60 min): 0.37±0.05 % injected dose per gram
Pancreas (C6 tumors; 60 min): 0.63±0.08 % injected dose per gram
Spleen (C6 tumors; 60 min): 0.65±0.08 % injected dose per gram
Stomach (C6 tumors; 60 min): 0.73±0.40 % injected dose per organ
Tumor (C6 tumors; 60 min): 1.09±0.05 % injected dose per gram
Blood (C6 tumors; 180 min): 3.29±0.40 % injected dose per gram
Heart (C6 tumors; 180 min): 1.14±0.04 % injected dose per gram
Intestine (C6 tumors; 180 min): 15.76±3.03 % injected dose per gram
Kidney (C6 tumors; 180 min): 73.44±4.42 % injected dose per gram
Liver (C6 tumors; 180 min): 33.97±4.98 % injected dose per gram
Lung (C6 tumors; 180 min): 1.88±0.25 % injected dose per gram
Muscle (C6 tumors; 180 min): 0.39±0.09 % injected dose per gram
Pancreas (C6 tumors; 180 min): 0.70±0.13 % injected dose per gram
Spleen (C6 tumors; 180 min): 0.82±0.11 % injected dose per gram
Stomach (C6 tumors; 180 min): 0.89±0.40 % injected dose per organ
Tumor (C6 tumors; 180 min): 1.37±0.24 % injected dose per gram
T/B ratio (C6 tumors; 5 min): 0.19±0.04
T/B ratio (C6 tumors; 15 min): 0.34±0.06
T/B ratio (C6 tumors; 30 min): 0.35±0.03
T/B ratio (C6 tumors; 60 min): 0.34±0.05
T/B ratio (C6 tumors; 180 min): 0.42±0.04
T/M ratio (C6 tumors; 5 min): 1.94±0.52
T/M ratio (C6 tumors; 15 min): 3.08±0.10
T/M ratio (C6 tumors; 30 min): 2.96±0.73
T/M ratio (C6 tumors; 60 min): 2.95±0.41
T/M ratio (C6 tumors; 180 min): 3.60±0.98
logP [1]: 2.7 ± 0.1
binding to FABP3 (his-tagged FABP3): 1.4±0.5 % dose/µg protein
FABP4 binding relative to FABP3 (his-tagged FABP4; FABP4 over FABP3): 11.5 fold
FABP4 binding relative to FABP5 (his-tagged FABP4; FABP4 over FABP5): 33.2 fold
binding to FABP4 (his-tagged FABP4; immobilized FABP4, 2 hr, room temperature): 16.3±3.4 % dose/µg protein
binding to FABP5 (his-tagged FABP5): 0.5±0.3 % dose/µg protein
SMILES: O=c1cc(COc2cccc([125I])c2)[nH]c2nc(-c3ccccc3)nn12 [[^125I]TAP1]
